The values below come from article PMC6008586, “Analysis of transition state mimicry by tight binding aminothiazoline inhibitors provides insight into catalysis by human O-GlcNAcase” (Chemical Science, 2016).

The conditions of data set [1]: reference compound with known pKa; cited from earlier work.
For data set [2], the system named is human lysosomal β-hexosaminidase (HEX). Conditions: cited from earlier work.
For data set [3], the target named is T1, human OGA (hOGA) (Homo sapiens, UniProt O60502).
T1 construct: made in house
T1 sequence (O60502 1-916): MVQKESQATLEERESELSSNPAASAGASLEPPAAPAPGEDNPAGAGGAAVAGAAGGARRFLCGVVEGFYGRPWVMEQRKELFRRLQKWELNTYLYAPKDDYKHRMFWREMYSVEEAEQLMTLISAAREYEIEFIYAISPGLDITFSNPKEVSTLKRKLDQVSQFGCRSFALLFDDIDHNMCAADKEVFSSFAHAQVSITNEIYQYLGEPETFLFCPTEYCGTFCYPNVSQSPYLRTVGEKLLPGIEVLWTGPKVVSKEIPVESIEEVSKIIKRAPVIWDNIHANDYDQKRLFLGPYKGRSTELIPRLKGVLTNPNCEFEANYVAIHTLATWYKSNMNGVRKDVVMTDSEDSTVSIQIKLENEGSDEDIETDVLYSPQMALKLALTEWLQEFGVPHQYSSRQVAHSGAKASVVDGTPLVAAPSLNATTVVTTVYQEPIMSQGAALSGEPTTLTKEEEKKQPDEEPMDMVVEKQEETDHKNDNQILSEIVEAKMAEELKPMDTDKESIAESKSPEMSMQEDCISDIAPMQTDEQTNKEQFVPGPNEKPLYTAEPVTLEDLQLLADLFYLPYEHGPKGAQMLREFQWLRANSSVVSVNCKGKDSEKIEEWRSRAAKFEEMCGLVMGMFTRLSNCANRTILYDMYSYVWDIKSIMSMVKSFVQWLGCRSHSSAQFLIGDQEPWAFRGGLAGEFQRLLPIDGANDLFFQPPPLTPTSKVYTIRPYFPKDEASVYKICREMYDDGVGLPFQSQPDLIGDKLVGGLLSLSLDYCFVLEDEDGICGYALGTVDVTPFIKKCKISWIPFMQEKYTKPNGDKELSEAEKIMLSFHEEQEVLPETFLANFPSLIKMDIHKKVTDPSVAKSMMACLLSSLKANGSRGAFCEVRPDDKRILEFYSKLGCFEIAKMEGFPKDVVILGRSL
The data set can be described thus: Inhibition of hOGA-catalysed 4-MUGlcNAc hydrolysis (Ki determination). It counts as biochemical. From the text:
Refinement of the Morrison approach by Copeland enables defining the Ki value for an inhibitor through the use of relative rates using a quadratic equation (eqn (1)).[46] This approach depends on knowing the initial free enzyme and inhibitor concentrations without the assumption that the free inhibitor concentration is equal to the total inhibitor concentration.1 [drawing 1]
Further, Ki values can be accurately determined over a wide range of enzyme concentrations using this method,[47] which enabled us to use hOGA concentrations that permit accurate initial rate determinations. […]
(§1) Biological evaluation: Gene expression and protein purification. hOGA was expressed and purified according to the previously described procedure by Macauley et al.[5] hOGA was dialyzed twice against PBS buffer after purification and its concentration determined using the Nanodrop2000. Human β-hexosaminidase was obtained from Micheal Tropak at the Hospital for Sick Children in Toronto, without further purification.
(§2) Kinetic analysis of hOGA. […]
(§3) in PBS pH 7.4 buffer (0.03% BSA) in triplicate at 37°C for 20 minutes. A continuous assay procedure was performed in which the reactions were initiated by the addition of 4-MUGlcNAc substrate (50 µL or 100 µL via a multi-channel […]
(§4) The excitation and emission were 350
(§5) The amount of fluorogenic substrate liberated was quantitatively assessed by using a standard curve for 4-methylumbelliferone under identical buffer conditions. A total of 6-8 inhibitor concentrations were tested, […]
(§6) The hOGA concentrations in the assays ranged from 0.8 nM to 20 nM, depending on whether the Ki being determined was through classic Michaelis-Menten methods or the Morrison Ki fit. For full Ki […]
For the Morrison Ki analyses, only one substrate concentration was used (at the Km) since the method of inhibition was already known from analysis using the Line-weaver Burke plots.
Kinetic analysis of substrates 18a-e were performed in triplicate using pH 7.4 PBS buffer (0.03% BSA) containing 2.5% DMF, with varying enzyme concentrations. […]

For data set [4], the target named is T2, human hexosaminidase B (hHexB) (Homo sapiens, UniProt P07686).
T2 construct: Micheal Tropak, Hospital for Sick Children, Toronto (gift, not a vendor)
T2 sequence (P07686 122-556): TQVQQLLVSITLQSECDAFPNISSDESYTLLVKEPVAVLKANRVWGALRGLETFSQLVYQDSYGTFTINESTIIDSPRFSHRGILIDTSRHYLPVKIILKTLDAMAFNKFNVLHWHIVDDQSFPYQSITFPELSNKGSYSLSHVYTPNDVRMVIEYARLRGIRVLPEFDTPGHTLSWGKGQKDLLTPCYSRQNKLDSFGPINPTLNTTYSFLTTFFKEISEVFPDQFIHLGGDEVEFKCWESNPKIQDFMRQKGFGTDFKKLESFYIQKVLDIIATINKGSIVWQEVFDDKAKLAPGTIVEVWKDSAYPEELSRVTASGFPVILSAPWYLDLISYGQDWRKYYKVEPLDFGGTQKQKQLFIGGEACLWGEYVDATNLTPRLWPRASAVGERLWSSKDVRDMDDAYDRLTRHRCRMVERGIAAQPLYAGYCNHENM
The data set is described as follows: Inhibition of human hexosaminidase B (4-MUGlcNAc substrate). It counts as biochemical. The conditions noted are these: for (hHexB/hOGA) selectivity ratio: Ki hHexB / Ki hOGA, favored selectivity for hOGA; for Ki: pH 4.25, 37°C.
Description: We next set out to assess the selectivity of this series of inhibitors for hOGA over the lysosomal β-hexosaminidases, which are comprised of combinations of α and β subunits that are products of the highly homologous HEXA and HEXB genes. […]
as §1, §2, §3, §4, §5, §6
For the Morrison Ki analyses, only one substrate concentration was used (at the Km) since the method of inhibition was already known from analysis using the Line-weaver Burke plots. […]
Kinetic analysis of β-hexosaminidase. All assays were carried out in 96 well plates (Thermoscientific, FloroNunc, lot […]
reactions were triggered by addition of substrate (20 µL or 15 µL) in a total volume of 45 or 40 µL. Reactions were […]
detect the fluorescent signal. […]

Data set [5] is described as follows: pKa determination using 13C NMR titration.
Description: (§7) In this way, a non-linear plot of the difference between NMR resonance frequencies for a compound of interest and those for a standard, such as 3-nitrophenol, can be used to determine the ratio (R) of the acid dissociation constants between these two materials.
(§8) pK determination using 13C NMR. All titrations were carried out on the Bruker AVANCE II 600 MHz NMR
(§9) spectrometer. The samples prepared for each titration contained 5 µL of 1,4-dioxane as an internal standard, an equal mol
(§10) amount of inhibitor and 3-nitrophenol or 3.4-dinitrophenol (depending on the availability of each compound) in 500 µL of
(§11) Each sample was made basic with 25-70 µL of 2M NaOH, and prior to
(§12) titration, it was ensured that there was no change in chemical shift with further addition of base in 5 µL increments, in
(§13) order to accurately establish the δd for each compound. The basic sample was then titrated with 10 µL of 0.5 M (15f-15h,
(§14) titration was reached. The point where the chemical shift stopped changing was the recorded δp for each compound. The
(§15) relative pKa (∆pKa) was then determined by non-linear fitting of data to Equation S1, which provides the value of R (R =
(§16) K x/K r) and describes the relationship between the difference (∆) in chemical shifts (δ) between each compound of
(§17) unknown pKa (x) and the reference compound with known pKa (r). δp and δd represent the chemical shifts of the protonated
(§18) and de-protonated species of each compound, where ∆ expresses the difference between the de-protonated species (δ x –
(§19) δd ), ∆ represents the difference between the deprotonated and protonated species of x (δd – δp ), and ∆ for that of the
(§20) reference compound (∆r = δ r – δ r). The fractional protonation of the reference compound is represented by n and is equal
We observed the 2′-carbon of the
(§21) aminothiazoline system and the C-1 carbon of 3-nitrophenol since these are most proximal to the ionizable center. Fitting
(§22) of the resulting data to Equation S1 (Figure 5 (ThiamEt-G), Supplemental Figure S7) enabled us to obtain values of R for
(§23) each compound and, by comparison to the reference compound, absolute pKa values (Table 1). The observed pKa values
A short description of data set [6]: physchem. The conditions noted are these: aqueous solution (H2O/D2O) with reference phenol.
Description: as §7, §8, §9, §10, §11, §12, §13, §14, §15, §16, §17, §18, §19, §20
We observed the 2′-carbon of the
as §21, §22, §23
Data set [7] deals with T3, hOGA (Homo sapiens, UniProt O60502).
T3 construct: made in house
T3 sequence (O60502 1-916): T1 sequence (O60502 1-916)
Conditions: cited from earlier work.

Setting [8] is: Morrison Ki fit, 4-MUGlcNAc, PBS pH 7.4, 37°C, read-out: hOGA Ki.
The mark [9] stands for this setting: Dixon plot analysis (approximate Ki).
Setting [10] is: 3-nitrophenol as reference compound.
Setting [11] is: Michaelis–Menten inhibition analysis, 4-MUGlcNAc, PBS pH 7.4, 37°C, read-out: hOGA Ki.
Where [12] appears, read: 3,4-dinitrophenol as reference compound.

The structures appear in SMILES notation. Read-outs that look alike come from different tables or passages of the source.

For `O=[N+]([O-])c1cccc(O)c1` [3-nitrophenol], the pKa in data set [1] is 8.42.

Consider `CC(=O)N[C@H]1CN2CC[C@H](O)[C@@H]2[C@@H](O)[C@@H]1O` [6-Ac-Cas, 6-acetamido-6-deoxy-castanospermine], for which the “selectivity for hOGA over lysosomal β-hexosaminidases” value in data set [2] (in words) is listed as “non-selective”.

On to `NC1=N[C@@H]2[C@@H](O)[C@H](O)[C@@H](CO)O[C@@H]2S1` [11a], for which the Ki turned out to be 0.0047 ± 0.0003 µM in data set [3] (setting [8]) and 5 ± 0.6 µM in data set [4] (Michaelis–Menten inhibition analysis (full Ki)). Further, the “(hHexB/hOGA) selectivity ratio” value in data set [4] stood at 1100.

In the case of `C=CCNC1=N[C@@H]2[C@@H](O)[C@H](O)[C@@H](CO)O[C@@H]2S1` [11b], the “mode of inhibition of hOGA” value in data set [3] (Lineweaver–Burk / Michaelis-Menten analysis) is recorded as “competitive inhibition”. Also, the Ki came to 0.0023 ± 0.0003 µM in data set [3] (Michaelis-Menten analysis, hOGA 0.8 nM (Figure S2A), read-out: hOGA Ki); 0.0032 ± 0.0004 µM in data set [3] (setting [8]); 0.0032 ± 0.0004 µM in data set [3] (Morrison approach, hOGA 10 nM, substrate 60 µM (Figure S2B), read-out: hOGA Ki); 0.0047 µM in data set [3] (graphical determination, Km app against inhibitor concentration (Figure S2A inset), read-out: hOGA Ki); 2850 ± 570 µM in data set [4] (setting [9]). In addition, the “(hHexB/hOGA) selectivity ratio” value in data set [4] is reported as 950 000.

Turning to `CN(C)C1=N[C@@H]2[C@@H](O)[C@H](O)[C@@H](CO)O[C@@H]2S1` [15b], the Ki in data set [4] (setting [9]) worked out at 13 ± 3.8 µM.

Consider `CCNC1=N[C@@H]2[C@@H](O)[C@H](O)[C@@H](CO)O[C@@H]2S1` [15c, 1,2-dideoxy-2′-ethylamino-α-D-glucopyranoso-[2,1-d]-Δ2′-thiazoline], for which the “R (Kax/Kar)” value in data set [5] (setting [10]) is on record as 0.1823 ± 0.0042. Besides, the “Fraction protonated at pH 7.4” value in data set [5] was 0.66. For the same compound, the pKa in data set [6] was determined as 7.68. Also, the Ki in data set [2] (read-out: hHexB Ki) was 740 ± 60 µM.

As to `CCCNC1=N[C@@H]2[C@@H](O)[C@H](O)[C@@H](CO)O[C@@H]2S1` [15d], the figures for the Ki in data set [3] (setting [8]) and in data set [4] (setting [9]) were 0.002 ± 0.0002 µM and 3700 ± 670 µM, respectively. Also, in data set [4], the “(hHexB/hOGA) selectivity ratio” value was 1 850 000.

Take `CCCCNC1=N[C@@H]2[C@@H](O)[C@H](O)[C@@H](CO)O[C@@H]2S1` [15e]: the Ki was 0.35 ± 0.09 µM in data set [3] (setting [11]) and 4800 ± 763 µM in data set [4] (setting [9]). In addition, in data set [4], the “(hHexB/hOGA) selectivity ratio” value is 13 700.

On to `OC[C@H]1O[C@@H]2SC(NCCF)=N[C@@H]2[C@@H](O)[C@@H]1O` [15f], for which, in data set [5] (setting [10]), the “R (Kax/Kar)” value is 0.0316 ± 0.0063. Moreover, the “Fraction protonated at pH 7.4” value in data set [5] is recorded as 0.25. The Ki in data set [3] is 0.015 ± 0.005 µM; in data set [4] (setting [9]), 180 ± 44 µM. Further, the pKa in data set [6] is 6.92. In addition, the “(hHexB/hOGA) selectivity ratio” value in data set [4] was 12 000.

For `OC[C@H]1O[C@@H]2SC(NCC(F)F)=N[C@@H]2[C@@H](O)[C@@H]1O` [15g], the “R (Kax/Kar)” value in data set [5] (setting [10]) came out at 0.0058 ± 0.0002. In addition, in data set [5], the “Fraction protonated at pH 7.4” value is 0.06. In addition, the Ki in data set [3] (setting [11]) is 0.06 ± 0.01 µM; in data set [4] (setting [9]) it was 150 ± 50 µM. In data set [6], this compound yielded a pKa of 6.18. Also, the “(hHexB/hOGA) selectivity ratio” value in data set [4] is on record as 2500.

For the compound `OC[C@H]1O[C@@H]2SC(NCC(F)(F)F)=N[C@@H]2[C@@H](O)[C@@H]1O` [15h], in data set [5] (setting [12]), the “R (Kax/Kar)” value came to 1.213 ± 0.049. For the same compound, the “Fraction protonated at pH 7.4” value in data set [5] stood at 0.01. The Ki in data set [3] (setting [11]) turned out to be 1 ± 0.2 µM; in data set [4] (setting [9]), 4200 ± 1530 µM. Besides, the pKa in data set [6] is 5.33. Also, the “(hHexB/hOGA) selectivity ratio” value in data set [4] was 4200.

Consider `CC(C)C(=O)N[C@H]1c2nc(CCc3ccccc3)cn2[C@H](CO)[C@@H](O)[C@@H]1O` [GlcNAcstatin C], for which the “Ki(HEX)/Ki(hOGA)” value in data set [2] is 190. Also, in data set [7], the Ki was 0.0032 µM.

For `C=CC=CC(=O)N[C@H]1c2nc(CCc3ccccc3)cn2[C@H](CO)[C@@H](O)[C@@H]1O` [GlcNAcstatin G], the “Ki(HEX)/Ki(hOGA)” value in data set [2] is recorded as 900 000. In data set [7], the Ki was 0.0041 µM.

In the case of `CCCCC(=O)N[C@H]1c2nc(CCc3ccccc3)cn2[C@H](CO)[C@@H](O)[C@@H]1O` [GlcNAcstatin H], in data set [2], the “Ki(HEX)/Ki(hOGA)” value is 35 000.

Take `CCCC1=N[C@@H]2[C@@H](O)[C@H](O)[C@@H](CO)O[C@@H]2S1` [NButGT, reference compound]: the “R (Kax/Kar)” value in data set [5] (setting [12]) amounted to 5.47 ± 3.28. The pKa in data set [6] turned out to be 4.65. For the same compound, the “Ki(HEX)/Ki(hOGA)” value in data set [2] (selectivity for hOGA over lysosomal β-hexosaminidases) is given as 1,500.
